Measured values taken from patent US20240124470A1, “FIVE-MEMBERED RING DERIVATIVE AND MEDICAL USE THEREOF” (SICHUAN HAISCO PHARMACEUTICAL CO., LTD., priority 2020, published 2024).

Key:
CYP2C19 = target: T1, CYP2C19 (Homo sapiens, UniProt P33261); experiment: Cytochrome P450 isoenzyme inhibition test, human liver microsomes: CYP2C19; type: in vitro ADME; conditions: human liver microsomes 0.1 mg/mL; read-out: IC50, inhibitory activity on CYP2C19
T1 construct: pre-incubated with the human liver microsome solutions containing 5 enzyme mixed substrates; from tissue; host or cells: human liver microsomes
T1 sequence (P33261 whole entry): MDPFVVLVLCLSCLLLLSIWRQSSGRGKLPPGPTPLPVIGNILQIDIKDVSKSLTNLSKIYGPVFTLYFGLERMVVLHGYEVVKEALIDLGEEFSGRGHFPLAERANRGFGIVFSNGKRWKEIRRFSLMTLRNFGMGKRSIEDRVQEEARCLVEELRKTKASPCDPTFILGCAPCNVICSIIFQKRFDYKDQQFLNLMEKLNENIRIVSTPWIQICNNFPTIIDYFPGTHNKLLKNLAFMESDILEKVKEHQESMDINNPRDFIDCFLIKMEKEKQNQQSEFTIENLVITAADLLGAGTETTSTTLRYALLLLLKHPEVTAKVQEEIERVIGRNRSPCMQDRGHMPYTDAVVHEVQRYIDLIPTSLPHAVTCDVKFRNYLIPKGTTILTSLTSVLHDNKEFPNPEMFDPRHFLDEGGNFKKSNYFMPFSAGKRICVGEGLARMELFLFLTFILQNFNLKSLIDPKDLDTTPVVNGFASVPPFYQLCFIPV
Protocol: (§1) 9. Cytochrome P450 Isoenzyme Inhibition Test Experimental objective: The inhibitory effect of the test compound on the activity of human liver microsomal cytochrome P450 isoenzyme (CYP1A2, CYP2C19, CYP2D6 and CYP3A4) was determined. Experimental operation: The test compound at an incubation concentration of 0, 0.03, 0.1, 0.3, 1, 3, 10, 30 and 100 μM was pre-incubated with the human liver microsome solutions containing 5 enzyme mixed substrates (liver microsome concentration: 0.1 mg/mL) in a water bath at 37° C. for 10 min, respectively, and then a coenzyme factor (NADPH) was added to start the reaction. After incubation in a water bath at 37° C. for 10 min, the reaction was terminated by adding glacial acetonitrile solution containing an internal standard, shaken for 1 min, centrifuged at 4° C. and 10,000 rpm for 10 min, and the supernatant was taken for LC/MS/MS analysis. The amount of metabolites produced by each CYP enzyme substrate was detected. The activity of each CYP isoenzyme was reflected by the production rate of each metabolite. […]

[1] = Evaluation of pharmacokinetics in mice; type: in vivo; conditions: male, mouse, plasma, oral; C57 mice, intravenous 5 mg/kg and intragastric 20 mg/kg
Protocol: Evaluation of Pharmacokinetics in Mice
Male C57 mice (purchased from Hunan SJA Laboratory Animal Co., Ltd, license number: SCXK (Xiang) 2019-0004), 20-25 g, were fasted overnight. On the day of the experiment, 18 male C57 mice were divided into 2 groups, with 9 mice in each group. The test compound was administered intravenously and intragastrically at doses of 5 mg/kg and 20 mg/kg respectively. Before administration and 5 min, 15 min, 30 min, 1 h, 2 h, 4 h, 6 h, 8 h and 24 h after administration, 0.1 ml of blood was collected from the orbital venous plexus, placed in an EDTAK2 centrifuge tube, and centrifuged at 6000 rpm at 4° C. for 5 min, and then the plasma was collected. The plasma sample was added to an acetonitrile solution containing an internal standard (dexamethasone, 500 ng/mL), vortexed and centrifuged at 10,000 rpm for 10 min, and the supernatant was taken for LC-MS/MS analysis. Pharmacokinetic parameters were calculated using the non-compartmental model in WinNonlin Version 8.0 (Pharsight, Mountain View, CA) pharmacokinetic software.

CYP1A2 = target: T2, CYP1A2 (Homo sapiens, UniProt P05177); experiment: Cytochrome P450 isoenzyme inhibition test, human liver microsomes: CYP1A2; type: in vitro ADME; conditions: human liver microsomes 0.1 mg/mL; read-out: IC50, inhibitory activity on CYP1A2
T2 construct: pre-incubated with the human liver microsome solutions containing 5 enzyme mixed substrates; from tissue; host or cells: human liver microsomes
T2 sequence (P05177 1-516): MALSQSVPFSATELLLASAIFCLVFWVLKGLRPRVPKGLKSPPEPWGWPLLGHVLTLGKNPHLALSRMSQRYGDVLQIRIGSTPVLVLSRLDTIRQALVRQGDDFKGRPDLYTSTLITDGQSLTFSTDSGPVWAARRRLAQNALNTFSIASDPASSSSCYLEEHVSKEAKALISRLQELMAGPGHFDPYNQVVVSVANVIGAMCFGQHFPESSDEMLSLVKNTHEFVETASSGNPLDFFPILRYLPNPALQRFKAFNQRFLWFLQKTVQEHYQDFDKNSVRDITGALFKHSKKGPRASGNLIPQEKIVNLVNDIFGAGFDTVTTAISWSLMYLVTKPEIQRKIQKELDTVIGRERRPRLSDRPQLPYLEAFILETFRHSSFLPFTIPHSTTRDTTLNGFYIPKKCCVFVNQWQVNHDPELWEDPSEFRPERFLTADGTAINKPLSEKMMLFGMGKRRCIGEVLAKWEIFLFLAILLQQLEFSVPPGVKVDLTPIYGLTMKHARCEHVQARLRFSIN
Protocol: as §1

CYP3A4-M = target: T3, CYP3A4-M (Homo sapiens, UniProt P08684); experiment: Cytochrome P450 isoenzyme inhibition test, human liver microsomes: CYP3A4-M; type: in vitro ADME; conditions: human liver microsomes 0.1 mg/mL; read-out: IC50, inhibitory activity on CYP3A4-M
T3 construct: pre-incubated with the human liver microsome solutions containing 5 enzyme mixed substrates; from tissue; host or cells: human liver microsomes
T3 sequence (P08684 whole entry): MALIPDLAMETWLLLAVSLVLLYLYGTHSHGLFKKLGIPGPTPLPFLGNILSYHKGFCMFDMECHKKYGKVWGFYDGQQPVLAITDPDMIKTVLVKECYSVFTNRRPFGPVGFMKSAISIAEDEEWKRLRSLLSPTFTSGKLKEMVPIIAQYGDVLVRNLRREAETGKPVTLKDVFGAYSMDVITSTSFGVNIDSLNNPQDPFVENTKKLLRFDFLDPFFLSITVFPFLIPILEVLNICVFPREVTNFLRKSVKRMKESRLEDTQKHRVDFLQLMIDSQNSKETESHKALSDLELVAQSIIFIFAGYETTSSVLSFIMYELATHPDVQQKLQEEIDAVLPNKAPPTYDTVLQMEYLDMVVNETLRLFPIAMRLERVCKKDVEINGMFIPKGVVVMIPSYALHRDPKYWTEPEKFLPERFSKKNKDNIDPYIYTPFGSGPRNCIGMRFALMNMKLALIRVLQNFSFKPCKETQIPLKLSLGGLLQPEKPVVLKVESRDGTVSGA
Protocol: as §1

hERG potassium channel = target: T4, hERG potassium channel (Homo sapiens, UniProt Q12809); experiment: Effects on hERG potassium channels, manual whole cell patch-clamp in CHO cells; type: cell-based; conditions: hERG potassium current, room temperature
T4 construct: expressed in transfected cells
T4 sequence (Q12809 whole entry): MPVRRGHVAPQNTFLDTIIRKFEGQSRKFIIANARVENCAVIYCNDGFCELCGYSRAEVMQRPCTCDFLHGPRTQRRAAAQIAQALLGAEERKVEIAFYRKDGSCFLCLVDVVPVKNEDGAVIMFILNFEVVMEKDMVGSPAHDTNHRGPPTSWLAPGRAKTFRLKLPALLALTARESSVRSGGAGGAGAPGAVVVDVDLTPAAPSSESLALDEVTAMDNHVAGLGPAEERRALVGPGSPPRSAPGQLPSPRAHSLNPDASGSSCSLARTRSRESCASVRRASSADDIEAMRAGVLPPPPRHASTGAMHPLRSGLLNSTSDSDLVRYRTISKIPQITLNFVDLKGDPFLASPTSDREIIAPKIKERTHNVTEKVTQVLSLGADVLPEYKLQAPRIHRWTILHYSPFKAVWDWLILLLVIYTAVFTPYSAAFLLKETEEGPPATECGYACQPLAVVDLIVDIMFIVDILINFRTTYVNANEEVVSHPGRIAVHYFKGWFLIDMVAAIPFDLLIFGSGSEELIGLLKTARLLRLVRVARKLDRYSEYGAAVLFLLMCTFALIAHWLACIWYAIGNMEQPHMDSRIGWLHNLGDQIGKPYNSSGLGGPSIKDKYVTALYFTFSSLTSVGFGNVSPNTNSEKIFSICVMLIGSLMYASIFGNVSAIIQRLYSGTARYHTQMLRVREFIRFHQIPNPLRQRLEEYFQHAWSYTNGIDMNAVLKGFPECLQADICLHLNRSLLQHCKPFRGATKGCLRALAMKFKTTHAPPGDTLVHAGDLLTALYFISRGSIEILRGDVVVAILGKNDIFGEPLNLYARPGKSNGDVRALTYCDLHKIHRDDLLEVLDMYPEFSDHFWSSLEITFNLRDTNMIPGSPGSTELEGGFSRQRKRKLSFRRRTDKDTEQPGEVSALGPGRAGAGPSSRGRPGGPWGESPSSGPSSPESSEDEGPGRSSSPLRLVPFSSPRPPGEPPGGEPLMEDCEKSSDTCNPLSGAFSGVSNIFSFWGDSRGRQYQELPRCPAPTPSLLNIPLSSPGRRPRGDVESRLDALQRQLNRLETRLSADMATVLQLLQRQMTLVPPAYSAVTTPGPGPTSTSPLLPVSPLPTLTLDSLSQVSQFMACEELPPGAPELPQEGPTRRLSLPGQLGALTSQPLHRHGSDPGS
Text: 2. Effects of the Compounds on hERG Potassium Channels
Experimental platform: electrophysiological manual patch-clamp system
Cell line: Chinese hamster ovary (CHO) cells stably expressing hERG potassium ion channel
Experimental method: For CHO (Chinese Hamster Ovary) cells stably expressing hERG potassium channel, whole cell patch-clamp technique was used to recorded hERG potassium channel current at room temperature in this experiment. The glass microelectrode is made of a glass electrode blank (BF150-86-10, Sutter) by a puller. The tip resistance after filling the liquid in the electrode is about 2-5 MΩ. The glass microelectrode can be connected to the patch-clamp amplifier by inserting the glass microelectrode into an amplifier probe. The clamping voltage and data recording are controlled and recorded by the pClamp 10 software through a computer. The sampling frequency is 10 kHz, and the filtering frequency is 2 kHz. After the whole cell records were obtained, the cells were clamped at −80 mV, and the step voltage that induced the hERG potassium current (IhERG) was depolarized from −80 mV to +20 mV for 2 s, then repolarized to −50 mV, and returned to −80 mV after 1 s. This voltage stimulation was given every 10 s, and the administration process was started after the hERG potassium current was confirmed to be stable (at least 1 minute). The compound was administered for at least 1 minute at each test concentration, and at least 2 cells (n≥2) were tested at each concentration.
Data analysis processing was carried out by using pClamp 10, GraphPad Prism 5 and Excel software. The inhibition degree of hERG potassium current (peak value of hERG tail current induced at −50 mV) at different compound concentrations was calculated by the following formula: Inhibition %=[1−(I/Io)]×100%.
Among the formula, Inhibition % represents the percentage of inhibition of hERG potassium current by the compound, and I and Io represent the amplitude of hERG potassium current after and before dosing, respectively.
Compound IC50 was calculated using GraphPad Prism 5 software by fitting according to the following equation:
Y=Bottom+(Top−Bottom)/(1+10^((LogIC50−X)×HillSlope))
Among the equation, X represents the Log value of the tested concentration of the test sample, Y represents the inhibition percentage at the corresponding concentration, and Bottom and Top represent the minimum and maximum inhibition percentage, respectively.

IC50 (CYP2C19): > 50 µM
bioavailability [1]: > 25%
IC50 (CYP1A2): > 50 µM
IC50 (CYP3A4-M): > 50 µM
Structure (SMILES): N#Cc1ccc(COc2cccc(-c3ccc(Cc4nc5sc(C(=O)O)cc5n4C[C@@H]4CCO4)c(F)c3)n2)c(F)c1 [Compound 6, (S)-2-(4-(6-((4-cyano-2-fluorobenzyl)oxy)pyridin-2-yl)-2-fluorobenzyl)-1-(oxetan-2-ylmethyl)-1H-thieno[2,3-d]imidazole-5-carboxylic acid]
IC50 (hERG potassium channel): > 40 µM
